One experiment has as its target T1, PLK1 kinase domain (Homo sapiens, UniProt P53350).
T1 construct: made in house; host or cells: baculovirus-infected T. ni insect cells
Briefly: Assay for inhibition of PLK1 (SPA, 33P-ATP, His-tagged PLK kinase domain). The class given is biochemical. Conditions: 2 μM ATP, read-out: Ave pIC50 PLK Enzyme Inhibition (converted). How it is done:
I. Assay for Inhibition of PLK1
A. Preparation of 6× N-terminal His-tagged PLK Kinase Domain
6× N-terminal His-tagged PLK kinase domain (amino acids 21-346 preceded by […]) was prepared from baculovirus infected T. ni cells under polyhedrin promoter control. All procedures were performed at 4° C. Cells were lysed in 25 mM HEPES, 200 mM NaCl, 25 mM imidazole; pH 8.0. The homogenate was centrifuged at 14K rpm in a SLA-1500 rotor for 40 min and the supernatant filtered through a 1.2 micron filter. The supernatant was loaded onto a Nickel chelating Sepharose (Amersham Pharmacia) column and washed with 25 mM HEPES, 500 mM NaCl, 25 mM imidazole; pH 8.0. The column was then washed with a 16.6% B step where buffer B is 25 mM HEPES, 500 mM NaCl, 300 mM imidazole; pH 8.0. Protein was eluted using a 10-column volume linear gradient from 16.6% B to 100% B. Fractions containing PLK were determined by SDS-PAGE. PLK was concentrated using a 10 kDa molecular weight cutoff membrane and then loaded onto a Superdex 75 gel filtration (Amersham Pharmacia) column equilibrated in 25 mM HEPES, 1 mM DTT, 500 mM NaCl; pH 8.0. Fractions containing PLK were determined by SDS-PAGE. PLK was pooled, aliquoted and stored at −80° C. Samples were quality controlled using mass spectrometry.
B. Enzyme Activity+/−Inhibitors was Determined as Follows:
Compounds were added to the plate (1 μl in 100% DMSO). DMSO (2% final) and EDTA (55.5 mM final) were used as controls. Reaction Mix A is prepared as follows at 4° C.:
Reaction Mix A (substrate Mix): • 25 mM HEPES, pH 7.2 • 15 mM MgCl2 • 2 μM ATP • 0.1 μCi/well ^33P-γ ATP (10 Ci/mMol) • 2 μM substrate peptide (Biotin-Ahx-[…]) Reaction Mix B is prepared as follows at 4° C.:
Reaction Mix B (Enzyme Mix) • 25 mM HEPES, pH 7.2 • 15 mM MgCl2 • 0.15 mg/ml BSA • 2 mM DTT • 2-10 nM PLK1 kinase domain
Reaction Mix A (20 μl) is added per well. Reaction Mix B (20 μl) is added per well. Incubate 1.5 hrs. at RT. The enzymatic reaction is stopped with 175 μl of SPA/EDTA bead mix (29 mM EDTA, 2.5 mg/ml Streptavidin-coated SPA in Standard Dulbecco's PBS (without Mg^2+ and Ca^2+), 60 μM ATP). Plates are sealed spun (after a 1 hr incubation at RT) at 1,000×g for 7 min or settled overnight, then plates counted in Packard TopCount for 30 seconds/well.

The test system of experiment [1] is H460 lung tumor cell line. Briefly: Methylene Blue Growth Inhibition Assay, H460. Conditions: Homo sapiens, NCI-H460, 72 h; H460 cells, 3 days; read-out: MeB Cell Line IC50. It counts as cell-based. How it is done:
(§1) II. Methylene Blue Growth Inhibition Assay
(§2) Normal Human foreskin fibroblasts (HFF) and human colon (HCT116, RKO), lung (H460), prostate (PC3), and breast tumor (MCF7) cell lines were cultured in high glucose DMEM (Life Technologies) containing 10% fetal bovine serum (FBS) at 37° C. in a humidified 10% CO2, 90% air incubator. Cells were harvested using trypsin/EDTA, counted using a haemocytometer, and plated in 100 μl of the appropriate media, at the following densities, in a 96-well tissue culture plate (Falcon 3075): HFF 5,000 cells/well, HCT116 3,000 cells/well, RKO 2,500 cells/well, H460 2,000 cells/well, PC3 8,000 cells/well, MCF7 4,000 cells/well. The next day, compounds were diluted in DMEM containing 100 μg/ml gentamicin, at twice the final required concentration, from 10 mM stock solutions in DMSO. 100 μl/well of these dilutions were added to the 100 μl of media currently on the cell plates. Medium containing 0.6% DMSO was added to control wells. Compounds diluted in DMEM were added to all cell lines. The final concentration of DMSO in all wells was 0.3%. Cells were incubated at 37° C., 10% CO2 for 3 days. Medium was removed by aspiration. Cell biomass was estimated by staining cells with 90 μl per well methylene blue (Sigma M9140, 0.5% In 50:50 ethanol:water), and incubation at room temperature for at least 30 minutes. Stain was removed, and the plates rinsed under a gentle stream of water, and air-dried. To release stain from the cells 100 μl of solubilization solution was added (1% N-lauroyl sarcosine, Sodium salt, Sigma L5125, in PBS), and plates were shaken gently for about 30 minutes. Optical density at 620 nm was measured on a microplate reader. Percent inhibition of cell growth was calculated relative to vehicle treated control wells. Concentration of compound that inhibits 50% of cell growth (IC50) was interpolated using nonlinear regression (Levenberg-Marquardt) and the equation, y=Vmax*(1−(x/(K+x)))+Y2, where “K” was equal to the IC50. In Table 1, +=10->30 uM; ++=1-10 uM: +++=<1 uM.

Experiment [2] concerns MCF7 breast tumor cell line. The experiment can be described thus: Methylene Blue Growth Inhibition Assay, MCF7. The settings on record: Homo sapiens, 72 h; MCF7 cells, 3 days; read-out: MeB Cell Line IC50. It counts as cell-based. Here is the method: as §1, §2
In experiment [3] the test system is PC3 prostate tumor cell line. Briefly: Methylene Blue Growth Inhibition Assay, PC3. The class given is cell-based. The settings on record: Homo sapiens, PC-3, 72 h; PC3 cells, 3 days; read-out: MeB Cell Line IC50. How it is done: as §1, §2
Experiment [4] deals with Normal Human foreskin fibroblasts (HFF). Briefly: Methylene Blue Growth Inhibition Assay, HFF. It counts as cell-based. Conditions: 72 h, HFF cells, 3 days, read-out: MeB Cell Line IC50. Here is the method: as §1, §2
The test system of experiment [5] is RKO colon tumor cell line. The experiment can be described thus: Methylene Blue Growth Inhibition Assay, RKO. It counts as cell-based. The settings on record: Homo sapiens, 72 h; RKO cells, 3 days; read-out: MeB Cell Line IC50. Here is the method:
as §1, §2

Experiment [6] relates to HCT116 colon tumor cell line. Briefly: Methylene Blue Growth Inhibition Assay, HCT116. It counts as cell-based. Conditions: Homo sapiens, HCT-116, 72 h; HCT116 cells, 3 days; read-out: MeB Cell Line IC50. How it is done:
as §1, §2

pIC50: −log10 of the molar value. Where a name gives a salt, the structure may show the parent alone. A value given as a limit tells only on which side of the number the result lay.

T1 sequence (P53350 21-346): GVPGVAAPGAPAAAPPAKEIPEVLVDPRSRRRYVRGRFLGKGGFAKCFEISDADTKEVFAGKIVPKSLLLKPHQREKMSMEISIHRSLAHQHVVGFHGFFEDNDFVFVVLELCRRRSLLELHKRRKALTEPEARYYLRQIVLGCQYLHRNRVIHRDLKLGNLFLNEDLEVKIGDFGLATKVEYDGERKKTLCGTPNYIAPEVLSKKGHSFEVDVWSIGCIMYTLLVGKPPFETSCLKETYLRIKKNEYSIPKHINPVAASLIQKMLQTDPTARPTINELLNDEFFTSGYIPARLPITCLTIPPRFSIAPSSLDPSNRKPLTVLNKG

Regarding `COc1cc(Nc2ncc([N+](=O)[O-])c(Nc3ccccc3C(=O)NC(C)(C)C)n2)cc(OC)c1OC` [Example 5, N-(tert-butyl)-2-({5-nitro-2-[(3,4,5-trimethoxyphenyl)amino]pyrimidin-4-yl}amino)benzamide hydrochloride], the IC50 on PLK1 kinase domain was below 0.1 µM. Also, the pIC50 in experiment [1], in experiment [2], in experiment [3], in experiment [4], in experiment [5] and in experiment [6] was 5.00 to 6.00 in each case.
As for `CC(=O)Nc1ccc(Nc2ncc([N+](=O)[O-])c(Nc3ccccc3C(=O)c3ccccc3)n2)cc1` [Example 7, N-[4-({4-[(2-benzoylphenyl)amino]-5-nitropyrimidin-2-yl}amino)phenyl]acetamide hydrochloride], the IC50 at PLK1 kinase domain was below 0.1 µM. Further, the pIC50 (in general, −log10 of the IC50, conventionally taken in molar units) in experiment [1] was 5.00 to 6.00; in experiment [2], 5.00 to 6.00; in experiment [3] it was 5.00 to 6.00; in experiment [4] it was below 5.00; in experiment [5], 5.00 to 6.00; in experiment [6] it was 5.00 to 6.00.
On to `COc1cc(Nc2ncc([N+](=O)[O-])c(Nc3cccc4c3C(=O)CCC4)n2)cc(OC)c1OC` [Example 9, 8-({5-nitro-2-[(3,4,5-trimethoxyphenyl)amino]pyrimidin-4-yl}amino)-3,4-dihydronaphthalen-1(2H)-one hydrochloride], for which, on PLK1 kinase domain, the IC50 is below 0.1 µM. Moreover, the pIC50 in experiment [1] is 5.00 to 6.00; in experiment [2] it was 5.00 to 6.00; in experiment [3], 5.00 to 6.00; in experiment [4] it was below 5.00; in experiment [5], 5.00 to 6.00; in experiment [6], 5.00 to 6.00.
`COc1cc(Nc2ncc([N+](=O)[O-])c(Nc3cccc4[nH]ccc34)n2)cc(OC)c1OC` [Example 15, N^4-(1H-indol-4-yl)-5-nitro-N^2-(3,4,5-trimethoxyphenyl)pyrimidine-2,4-diamine hydrochloride]: on PLK1 kinase domain, the IC50 was below 0.1 µM. The pIC50 in experiment [1] was 5.00 to 6.00; in experiment [2], 5.00 to 6.00; in experiment [3], 5.00 to 6.00; in experiment [4], 5.00 to 6.00; in experiment [5], above 6.00; in experiment [6], 5.00 to 6.00.
Regarding `COc1cc(Nc2ncc([N+](=O)[O-])c(Nc3cccc4c3OCCO4)n2)cc(OC)c1OC` [Example 19, N^4-(2,3-dihydro-1,4-benzodioxin-5-yl)-5-nitro-N^2-(3,4,5-trimethoxyphenyl)pyrimidine-2,4-diamine hydrochloride], the IC50 on PLK1 kinase domain was below 0.1 µM. Further, the negative logarithm of the IC50 (pIC50) is 5.00 to 6.00 in experiment [1]; 5.00 to 6.00 in experiment [2]; below 5.00 in experiment [3]; below 5.00 in experiment [4]; 5.00 to 6.00 in experiment [5]; below 5.00 in experiment [6].
Turning to `COc1cc(Nc2ncc([N+](=O)[O-])c(Nc3ccc(O)cc3C(=O)O)n2)cc(OC)c1OC` [Example 22, 5-Hydroxy-2-({5-nitro-2-[(3,4,5-trimethoxyphenyl)amino]pyrimidin-4-yl}amino)benzoic acid hydrochloride], the IC50 at PLK1 kinase domain was below 0.1 µM. For the same molecule, the pIC50 in experiment [1], in experiment [2], in experiment [3], in experiment [4], in experiment [5] and in experiment [6] was below 5.00 each time.
For the molecule `COc1cc(Nc2ncc([N+](=O)[O-])c(Nc3ccccc3C(=O)NC3CCCCC3)n2)cc(OC)c1OC` [Example 34, N-Cyclohexyl-2-({5-nitro-2-[(3,4,5-trimethoxyphenyl)amino]pyrimidin-4-yl}amino)benzamide hydrochloride], the IC50 on PLK1 kinase domain was below 0.1 µM. Besides, the pIC50 in experiment [1] was 5.00 to 6.00; in experiment [2], 5.00 to 6.00; in experiment [3] it was below 5.00; in experiment [4] it was 5.00 to 6.00; in experiment [5], 5.00 to 6.00; in experiment [6] it was 5.00 to 6.00.
In the case of `COc1cc(Nc2ncc([N+](=O)[O-])c(Nc3ccc(Cl)cc3C(=O)c3ccccc3F)n2)cc(OC)c1OC` [Example 36, [5-Chloro-2-({5-nitro-2-[(3,4,5-trimethoxyphenyl)amino]pyrimidin-4-yl}amino)phenyl](2-fluorophenyl)methanone hydrochloride], at PLK1 kinase domain, the IC50 is below 0.1 µM. Besides, the pIC50 is 5.00 to 6.00 in experiment [1]; 5.00 to 6.00 in experiment [2]; below 5.00 in experiment [3]; below 5.00 in experiment [4]; 5.00 to 6.00 in experiment [5]; 5.00 to 6.00 in experiment [6].
Turning to `COc1cc(Nc2ncc(C#N)c(Nc3ccccc3C(=O)c3ccc(C)cc3)n2)cc(OC)c1OC` [Example 39, 4-{[2-(4-Methylbenzoyl)phenyl]amino}-2-[(3,4,5-trimethoxyphenyl)amino]pyrimidine-5-carbonitrile], the IC50 at PLK1 kinase domain is below 0.1 µM. The pIC50 in experiment [1] was 5.00 to 6.00; in experiment [2] it was 5.00 to 6.00; in experiment [3], 5.00 to 6.00; in experiment [4], below 5.00; in experiment [5], 5.00 to 6.00; in experiment [6], 5.00 to 6.00.

These data come from patent publication US7514446B2, “Pyrimidine compounds” (SmithKline Beecham Corporation, priority 2003, dated 2009).
